The values below come from US10336759B2, “Salts and processes of preparing a PI3K inhibitor” (Incyte Corporation, priority 2015, dated 2019).

The target of one experiment is JAK2 (Homo sapiens (Human), UniProt O60674). The experiment in a line: Assay A, JAK2 versus JAK1 (ratio). The format is biochemical. The conditions noted are these: ratio of IC50s, Assay A at 1 mM ATP.
For the next experiment, the target named is JAK1 (Homo sapiens (Human), UniProt P23458). The experiment can be described thus: Assay A, JAK1 IC50 at 1 mM ATP. The conditions noted are these: method of Assay A at 1 mM ATP; #3 data for enantiomer 1, #14 data for enantiomer 2. The format is biochemical.
JAK1, sequence (P23458 whole entry, species assumed): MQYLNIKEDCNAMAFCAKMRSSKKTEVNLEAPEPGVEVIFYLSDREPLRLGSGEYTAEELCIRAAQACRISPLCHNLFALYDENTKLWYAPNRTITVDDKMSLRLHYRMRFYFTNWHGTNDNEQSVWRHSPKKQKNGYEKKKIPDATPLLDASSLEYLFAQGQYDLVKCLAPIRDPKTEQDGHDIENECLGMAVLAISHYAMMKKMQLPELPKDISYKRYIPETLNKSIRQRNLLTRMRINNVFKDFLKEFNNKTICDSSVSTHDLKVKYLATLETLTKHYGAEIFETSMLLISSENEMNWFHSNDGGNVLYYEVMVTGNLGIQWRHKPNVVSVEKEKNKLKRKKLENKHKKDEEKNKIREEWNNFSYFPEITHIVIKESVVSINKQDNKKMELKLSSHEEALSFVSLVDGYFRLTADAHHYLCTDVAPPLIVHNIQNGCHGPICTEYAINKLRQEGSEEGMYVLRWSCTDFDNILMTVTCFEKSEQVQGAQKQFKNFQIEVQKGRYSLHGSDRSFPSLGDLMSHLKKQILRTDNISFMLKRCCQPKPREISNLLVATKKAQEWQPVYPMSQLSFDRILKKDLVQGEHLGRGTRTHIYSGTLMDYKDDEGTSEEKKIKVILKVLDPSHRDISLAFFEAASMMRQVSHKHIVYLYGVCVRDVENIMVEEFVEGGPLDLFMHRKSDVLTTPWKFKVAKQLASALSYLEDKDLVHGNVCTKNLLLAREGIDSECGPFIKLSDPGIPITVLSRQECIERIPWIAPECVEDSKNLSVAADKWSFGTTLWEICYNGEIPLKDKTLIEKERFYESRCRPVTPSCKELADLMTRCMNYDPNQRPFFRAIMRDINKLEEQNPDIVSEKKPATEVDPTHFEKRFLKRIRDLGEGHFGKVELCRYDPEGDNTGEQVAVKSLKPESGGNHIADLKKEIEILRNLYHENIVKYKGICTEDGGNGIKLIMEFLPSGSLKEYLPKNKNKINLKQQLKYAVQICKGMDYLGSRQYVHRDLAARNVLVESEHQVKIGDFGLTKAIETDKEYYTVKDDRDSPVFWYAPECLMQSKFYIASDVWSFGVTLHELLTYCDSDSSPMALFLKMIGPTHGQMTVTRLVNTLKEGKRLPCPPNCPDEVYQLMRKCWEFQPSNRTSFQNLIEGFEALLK

JAK2, sequence (O60674 whole entry, species assumed): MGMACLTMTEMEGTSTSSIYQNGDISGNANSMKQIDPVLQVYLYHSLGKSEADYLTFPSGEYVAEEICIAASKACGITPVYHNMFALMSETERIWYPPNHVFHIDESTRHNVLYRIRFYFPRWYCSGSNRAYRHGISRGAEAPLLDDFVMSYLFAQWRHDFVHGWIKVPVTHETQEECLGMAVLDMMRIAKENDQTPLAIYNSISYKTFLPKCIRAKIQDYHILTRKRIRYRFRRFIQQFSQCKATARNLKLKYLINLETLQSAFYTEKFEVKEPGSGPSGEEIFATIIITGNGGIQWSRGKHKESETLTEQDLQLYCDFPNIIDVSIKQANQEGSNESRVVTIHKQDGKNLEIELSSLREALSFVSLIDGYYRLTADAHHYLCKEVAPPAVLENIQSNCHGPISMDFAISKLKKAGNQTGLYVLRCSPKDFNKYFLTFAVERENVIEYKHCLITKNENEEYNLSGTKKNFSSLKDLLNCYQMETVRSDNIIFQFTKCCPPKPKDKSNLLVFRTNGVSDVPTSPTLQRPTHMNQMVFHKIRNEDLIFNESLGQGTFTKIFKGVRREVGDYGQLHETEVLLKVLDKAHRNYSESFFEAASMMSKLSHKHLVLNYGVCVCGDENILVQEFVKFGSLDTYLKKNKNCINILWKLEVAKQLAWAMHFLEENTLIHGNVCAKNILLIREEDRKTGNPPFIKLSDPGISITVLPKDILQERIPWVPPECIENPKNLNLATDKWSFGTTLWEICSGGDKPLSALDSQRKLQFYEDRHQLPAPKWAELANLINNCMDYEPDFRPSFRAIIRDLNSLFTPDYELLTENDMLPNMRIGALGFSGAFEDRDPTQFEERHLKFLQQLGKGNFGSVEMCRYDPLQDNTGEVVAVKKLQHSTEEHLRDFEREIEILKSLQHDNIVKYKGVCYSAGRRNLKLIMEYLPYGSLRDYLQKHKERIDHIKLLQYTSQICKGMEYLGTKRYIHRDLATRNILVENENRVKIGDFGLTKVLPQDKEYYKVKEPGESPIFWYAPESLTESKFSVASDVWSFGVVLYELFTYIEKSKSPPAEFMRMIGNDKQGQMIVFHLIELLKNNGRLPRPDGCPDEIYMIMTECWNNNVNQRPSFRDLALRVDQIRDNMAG

In the case of `C[C@@H](O)c1nc2cnc3ccsc3c2n1[C@H]1CC[C@H](CC#N)OC1` [Example 1, ((2R,5S)-5-{2-[(1R)-1-hydroxyethyl]-1H-imidazo[4,5-d]thieno[3,2-b]pyridin-1-yl}tetrahydro-2H-pyran-2-yl)acetonitrile], the JAK2/JAK1 on JAK2 was >10.

What is called IC50 is the concentration at which inhibition is half-maximal. In the case of `N#CCC(CN1CCN(C(=O)c2ccc(C#N)cc2F)CC1)n1cc(-c2ncnc3[nH]ccc23)cn1` (stereo not shown) [Example 5, 4-[(4-{3-cyano-2-[4-(7H-pyrrolo[2,3-d]pyrimidin-4-yl)-1H-pyrazol-1-yl)propyl}piperazin-1-yl)carbonyl]-3-fluorobenzonitrile], the JAK2/JAK1 on JAK2 is reported as >10. Also, the IC50 at JAK1 is < 0.01 µM.

In the case of `C[C@@H](CO)NCc1cc(OC2CCN([C@H]3C[C@](CC#N)(n4cc(-c5ncnc6[nH]ccc56)cn4)C3)CC2)nc(C(F)(F)F)c1` [Example 23, {trans-3-(4-{[4-({[(1S)-2-hydroxy-1-methylethyl]amino}methyl)-6-(trifluoromethyl)pyridin-2-yl]oxy}piperidin-1-yl)-1-[4-(7H-pyrrolo[2,3-d]pyrimidin-4-yl)-1H-pyrazol-1-yl]cyclobutyl}acetonitrile], the JAK2/JAK1 on JAK2 is >10. The concentration for half-maximal inhibition (IC50) against JAK1 was < 0.01 µM.

As to `N#CCC1(n2cc(-c3ncnc4[nH]ccc34)cn2)CN(C2CCN(C(=O)Nc3ccc(F)cc3C(F)(F)F)CC2)C1` [Example 8, 4-{3-(Cyanomethyl)-3-[4-(7H-pyrrolo[2,3-d]pyrimidin-4-yl)-1H-pyrazol-1-yl]azetidin-1-yl}-N-[4-fluoro-2-(trifluoromethyl)phenyl] piperidine-1-carboxamide], the JAK2/JAK1 on JAK2 is on record as >10. Also, the half-maximal inhibitory concentration (IC50) against JAK1 is < 0.01 µM.

For the molecule `CC(C)(O)c1cc(O[C@H]2CC[C@@H](N3CC(CC#N)(n4cc(-c5ncnc6[nH]ccc56)cn4)C3)CC2)nc(C(F)(F)F)c1` [Example 20, {1-(cis-4-{[4-(1-hydroxy-1-methylethyl)-6-(trifluoromethyl)pyridin-2-yl]oxy}cyclohexyl)-3-[4-(7H-pyrrolo[2,3-d]pyrimidin-4-yl)-1H-pyrazol-1-yl]azetidin-3-yl}acetonitrile], on JAK2, the JAK2/JAK1 is on record as >10. Moreover, the IC50 on JAK1 is < 0.01 µM.

`N#CCC1(n2cc(-c3ncnc4[nH]ccc34)cn2)CN([C@H]2CC[C@@H](Oc3cc(CN4CC[C@H](O)C4)cc(C(F)(F)F)n3)CC2)C1` [Example 22, {1-(cis-4-{[4-{[(3S)-3-hydroxypyrrolidin-1-yl]methyl}-6-(trifluoromethyl)pyridin-2-yl]oxy}cyclohexyl)-3-[4-(7H-pyrrolo[2,3-d]pyrimidin-4-yl)-1H-pyrazol-1-yl]azetidin-3-yl}acetonitrile]: the JAK2/JAK1 on JAK2 is given as >10. Also, the IC50 on JAK1 was < 0.01 µM.

On to `N#CCC(C1CCN(c2cccc(Cl)n2)C1)n1cc(-c2ncnc3[nH]ccc23)cn1` (single isomer, unassigned) [Example 3, 3-[1-(6-chloropyridin-2-yl)pyrrolidin-3-yl]-3-[4-(7H-pyrrolo[2,3-d]pyrimidin-4-yl)-1H-pyrazol-1-yl]propanenitrile], for which, at JAK2, the JAK2/JAK1 was >10. Moreover, on JAK1, the IC50 was < 0.01 µM.

Consider `N#CC[C@]1(n2cc(-c3ncnc4[nH]ccc34)cn2)C[C@H](N2CCC(Oc3cc(CN4CC(O)C4)cc(C(F)(F)F)n3)CC2)C1` [Example 11, {trans-3-(4-{[4-[(3-hydroxyazetidin-1-yl)methyl]-6-(trifluoromethyl)pyridin-2-yl]oxy}piperidin-1-yl)-1-[4-(7H-pyrrolo[2,3-d]pyrimidin-4-yl)-1H-pyrazol-1-yl]cyclobutyl}acetonitrile], for which, on JAK2, the JAK2/JAK1 was >10. The 50% inhibitory concentration (IC50) against JAK1 was < 0.01 µM.

Take `N#CC[C@]1(n2cc(-c3ncnc4[nH]ccc34)cn2)C[C@H](N2CCC(Oc3cc(CN4CCC[C@H]4CO)cc(C(F)(F)F)n3)CC2)C1` [Example 12]: the JAK2/JAK1 at JAK2 is >10. Besides, the half-inhibitory concentration (IC50) at JAK1 was < 0.01 µM.

As to `N#CCC1(n2cc(-c3ncnc4[nH]ccc34)cn2)CN(C2CCN(C(=O)c3ccnc(C(F)(F)F)n3)CC2)C1` [Example 9, [3-[4-(7H-pyrrolo[2,3-d]pyrimidin-4-yl)-1H-pyrazol-1-yl]-1-(1-{[2,- (trifluoromethyl)pyrimidin-4-yl]carbonyl}piperidin-4-yl)azetidin-3-yl]acetonitrile], the JAK2/JAK1 on JAK2 is given as >10. Besides, the half-maximal inhibitory concentration (IC50) on JAK1 was < 0.01 µM.

On to `N#CCC1(n2cc(-c3ncnc4[nH]ccc34)cn2)CN(C2CCN(C(=O)c3ccnc(C(F)(F)F)c3F)CC2)C1` [Example 7, {1-{1-[3-Fluoro-2-(trifluoromethyl)isonicotinoyl]piperidin-4-yl}-3-[4-(7H-pyrrolo[2,3-d]pyrimidin-4-yl)-1H-pyrazol-1-yl]azetidin-3-yl}acetonitrile], for which, on JAK2, the JAK2/JAK1 is listed as >10. Also, the IC50 against JAK1 is < 0.01 µM.

Regarding `C[C@@H](O)CNCc1cc(OC2CCN([C@H]3C[C@](CC#N)(n4cc(-c5ncnc6[nH]ccc56)cn4)C3)CC2)nc(C(F)(F)F)c1` [Example 24, {trans-3-(4-{[4-({[(2R)-2-hydroxypropyl]amino}methyl)-6-(trifluoromethyl)pyridin-2-yl]oxy}piperidin-1-yl)-1-[4-(7H-pyrrolo[2,3-d]pyrimidin-4-yl)-1H-pyrazol-1-yl]cyclobutyl}acetonitrile], the JAK2/JAK1 at JAK2 was >10. The IC50 at JAK1 is < 0.01 µM.

For the molecule `N#CC[C@]1(n2cc(-c3ncnc4[nH]ccc34)cn2)C[C@H](N2CCN(C(=O)c3ccnc(C(F)(F)F)n3)CC2)C1` [Example 10, [trans-1-[4-(7H-pyrrolo[2,3-d]pyrimidin-4-yl)-1H-pyrazol-1-yl]-3-(4-{[2-(trifluoromethyl)pyrimidin-4-yl]carbonyl}piperazin-1-yl)cyclobutyl]acetonitrile], the JAK2/JAK1 at JAK2 is >10. In addition, the half-inhibitory concentration (IC50) at JAK1 is < 0.01 µM.

For `N#CCC1(n2cc(-c3ncnc4[nH]ccc34)cn2)CN([C@H]2CC[C@@H](Oc3cc(CCO)nc(C(F)(F)F)n3)CC2)C1` [Example 18, {1-(cis-4-{[6-(2-hydroxyethyl)-2-(trifluoromethyl)pyrimidin-4-yl]oxy}cyclohexyl)-3-[4-(7H-pyrrolo[2,3-d]pyrimidin-4-yl)-1H-pyrazol-1-yl]azetidin-3-yl}acetonitrile], the JAK2/JAK1 at JAK2 is >10. In addition, the IC50 against JAK1 was < 0.01 µM.

For the molecule `N#CC[C@]1(n2cc(-c3ncnc4[nH]ccc34)cn2)C[C@H](N2CCC(Oc3cc(CN4CCC[C@@H]4CO)cc(C(F)(F)F)n3)CC2)C1` [Example 13, {trans-3-(4-{[4-{[(2R)-2-(hydroxymethyl)pyrrolidin-1-yl]methyl}-6-(trifluoromethyl)pyridin-2-yl]oxy}piperidin-1-yl)-1-[4-(7H-pyrrolo[2,3-d]pyrimidin-4-yl)-1H-pyrazol-1-yl]cyclobutyl}acetonitrile], at JAK2, the JAK2/JAK1 is reported as >10. Further, the IC50 at JAK1 was < 0.01 µM.

With `C[C@H](O)CNCc1cc(OC2CCN([C@H]3C[C@](CC#N)(n4cc(-c5ncnc6[nH]ccc56)cn4)C3)CC2)nc(C(F)(F)F)c1` [Example 25, {trans-3-(4-{[4-({[(2S)-2-hydroxypropyl]amino}methyl)-6-(trifluoromethyl)pyridin-2-yl]oxy}piperidin-1-yl)-1-[4-(7H-pyrrolo[2,3-d]pyrimidin-4-yl)-1H-pyrazol-1-yl]cyclobutyl}acetonitrile], the JAK2/JAK1 at JAK2 is >10. Moreover, the half-maximal inhibitory concentration (IC50) on JAK1 was < 0.01 µM.

For `N#CCC1(n2cc(-c3ncnc4[nH]ccc34)cn2)CN([C@H]2CC[C@@H](Oc3cc(CN4CC[C@@H](O)C4)cc(C(F)(F)F)n3)CC2)C1` [Example 21], the JAK2/JAK1 on JAK2 is >10. Also, the half-inhibitory concentration (IC50) on JAK1 is < 0.01 µM.

For the molecule `CCNCc1cc(O[C@H]2CC[C@@H](N3CC(CC#N)(n4cc(-c5ncnc6[nH]ccc56)cn4)C3)CC2)nc(C(F)(F)F)c1` [Example 19, {1-(cis-4-{[4-[(ethylamino)methyl]-6-(trifluoromethyl)pyridin-2-yl]oxy}cyclohexyl)-3-[4-(7H-pyrrolo[2,3-d]pyrimidin-4-yl)-1H-pyrazol-1-yl]lazetidin-3-yl}acetonitrile], the JAK2/JAK1 at JAK2 is recorded as >10. The IC50 against JAK1 was < 0.01 µM.

On to `N#CCC(C1CCN(c2nc3cccnc3o2)C1)n1cc(-c2ncnc3[nH]ccc23)cn1` (stereo not shown) [Example 4, 3-(1-[1,3]oxazolo[5,4-b]pyridin-2-ylpyrrolidin-3-yl)-3-[4-(7H-pyrrolo[2,3-. d]pyrimidin-4-yl)-1H-pyrazol-1-yl]propanenitrile], for which the JAK2/JAK1 at JAK2 was >10. The IC50 on JAK1 was < 0.01 µM.

On to `N#CC[C@]1(n2cc(-c3ncnc4[nH]ccc34)cn2)C[C@H](N2CCC(Oc3cc(CCO)cc(C(F)(F)F)n3)CC2)C1` [Example 26, {trans-3-(4-{[4-(2-hydroxyethyl)-6-(trifluoromethyl)pyridin-2-yl]oxy}piperidin-1-yl)-1-[4-(7H-pyrrolo[2,3-d]pyrimidin-4-yl)-1H-pyrazol-1-yl]cyclobutyl}acetonitrile], for which the JAK2/JAK1 at JAK2 is listed as >10. For the same molecule, the IC50 on JAK1 was < 0.01 µM.

As to `N#CCC(CN1CCN(C(=O)c2ccc(C#N)cc2F)CC1)n1ccc(-c2ncnc3[nH]ccc23)c1` (stereo not shown) [Example 6, 4-[(4-{3-cyano-2-[3-(7H-pyrrolo[2,3-d]pyrimidin-4-yl)-1H-pyrrol-1-yl]propyl}piperazin-1-yl)carbonyl]-3-fluorobenzonitrile], the JAK2/JAK1 on JAK2 is given as >10. Moreover, the IC50 at JAK1 is < 0.01 µM.

As for `C[C@H](NC(=O)c1cc(F)c(N2CC(CC#N)(n3cc(-c4ncnc5[nH]ccc45)cn3)C2)cc1F)C(F)(F)F` [Example 16, 4-{3-(cyanomethyl)-3-[4-(7H-pyrrolo[2,3-d]pyrimidin-4-yl)-1H-pyrazol-1-yl]azetidin-1-yl}-2,5-difluoro-N-[(1S)-2,2,2-trifluoro-1-methylethyl]benzamide], the JAK2/JAK1 at JAK2 is reported as >10. Moreover, on JAK1, the IC50 is < 0.01 µM.
